Data published in article PMC5766630, “Non-estrogenic Xanthohumol Derivatives Mitigate Insulin Resistance and Cognitive Impairment in High-Fat Diet-induced Obese Mice” (Scientific Reports, 2018).

Columns and labels:
[1] = test system: C57BL/6J mice fed a high-fat diet; assay: In vivo liver toxicity: plasma AST and ALT; set-up: species or system mouse; conditions: male C57BL/6J mice, HFD, 30 mg/kg/day in diet, 13 weeks; mean ± SE, n = 11–12
From the text: Nine-week old male C57BL/6J mice, obtained from The Jackson Laboratory (Bar Harbor, ME, USA), were housed individually in plastic cages under a 12–12-hr light-dark cycle. They were assigned randomly to four groups consisting of 12 mice each. One group (control) was fed a HFD (Dyets Inc., Bethlehem, PA, USA) containing 60%, 20% and 20% total calories from fat, carbohydrate and protein, respectively, and the other three groups were fed the HFD containing XN, DXN, or TXN. The test compounds were dissolved in an isotropic mixture of oleic acid:propylene glycol:Tween 80, 0.9:1:1 by weight (OPT) before incorporation into the HFD. The control diet contained an identical amount of OPT. All diets were prepared in pellet form by Dyets, Inc. (Bethlehem, PA, USA). The mouse diets were formulated to deliver a dose of 30 mg test compound per kg body weight per day. Food intake was measured three times per week and body weights were recorded weekly. At the end of 13 weeks of feeding, the mice were euthanized and blood, liver and skeletal muscle were collected for analyses. All animal protocols were approved by Institutional Animal Care and Use Committee (IACUC) at Oregon State University. Animal experiments were carried out in accordance with the relevant guidelines and regulations.
Plasma triglycerides and total cholesterol were analyzed with commercially available kits (Fisher-Scientific, Pittsburgh, PA, USA). Plasma glucose was analyzed by a test kit obtained from Wako Diagnostics (Mountain View, CA, USA). Plasma insulin and leptin were analyzed by ELISA kits purchased from Alpco Diagnostics (Salem, NH, USA) and Crystal Chem (Downers Grove, IL, USA), respectively. Homeostasis Model Assessment of Insulin Resistance (HOMA-IR) was calculated as follows: fasting plasma insulin concentration (mU/L) × fasting plasma glucose level (mmol/L)/22.5[95]. Plasma levels of AST and ALT were measured using commercially-available kits (Bioo Scientific Corp., Austin, TX, USA) as indicators of in vivo liver toxicity.

[2] = test system: C2C12 skeletal muscle myoblasts; assay: MTT cell viability assay, C2C12; format: cell-based, mouse; conditions: 1 h exposure, up to 50 μM
Procedure: For cell viability experiments using the MTT assay, mouse C2C12 skeletal muscle myoblasts (ATCC; Manassas, VA, USA) and the human hepatocyte cell line, HepG2 (ATCC; Manassas, VA, USA), were plated in 96-well plates at a density of 4,000 to 10,000 cells per well in 200 μL of DMEM medium supplemented with 10% FBS, 1% glutamine, 1 mM of sodium pyruvate, 100 units/mL penicillin, and 100 μg/mL streptomycin. After incubating 48 h, the medium was removed and the cells were treated with fresh solutions of various concentrations of XN, DXN or TXN in phenol red-free DMEM plus supplements. The final concentrations of XN, DXN, TXN were 1, 2, 5, 8, 10, 25, or 50 μM, in quadruplicate wells. The plates were then incubated for 1 h (for C2C12) or 24 h for HepG2. After removing the medium, the cells were incubated for 2 h with a 0.5 mg/mL solution of MTT in phenol red-free culture medium. After removing the medium and adding a solution of acidified isopropanol to each well, the absorbance of each well was measured at 570 nm by using a spectrometer (SpectraMax 190, Molecular Devices, Sunnyvale, CA, USA). Cell viability of compound-treated cells was calculated as % absorbance of vehicle-treated control cells (Supplementary Fig. S1a and S1b).

[3] = test system: C2C12 cells; assay: Seahorse OCR and ECAR measurements (mitochondrial uncoupling); format: cell-based, mouse; conditions: for Increase of OCR in the presence of oligomycin (uncoupled respiration): 5 µM compound after 1 μM oligomycin, compared to the baseline, five independent experiments; for ECAR after addition of compound: 5 µM final concentration, after oligomycin 1 μM
Procedure: OCR and ECAR measurements were performed with a Seahorse XF 24 Analyzer (Agilent Technologies, Inc., Santa Clara, CA, USA). C2C12 cells were plated in culture medium at a density of 40,000 cells per well in a 24-well plate. The cells were then allowed to adhere for 24 h (37 °C, 5% CO2). Prior to the assay, the cells were washed with freshly prepared running medium consisting of Seahorse XF Assay medium (Agilent Technologies, Inc., Santa Clara, CA, USA), 10 mM glucose and 1 mM sodium pyruvate. The pH of the medium was adjusted to 7.4 with 1 M NaOH. The cells were then equilibrated for one hour at 37 °C without CO2. […] To overcome this problem, the test compounds were first dissolved in ethanol and the resulting solution was diluted 100-fold in treatment medium (9 parts XF media and 1 part 10% FBS media) which was added directly to cells. The treatment medium contained 1% FBS and after a further 10-fold dilution into the media in wells, only 0.1% FBS was present during OCR and ECAR measurements. The final concentrations in the wells were: 1 μM for oligomycin, and 5 μM for XN, DXN or TXN. The concentration of oligomycin and the cell density used were selected based on preliminary experiments. Ethanol was added to the control wells not to exceed a final concentration of 0.1% (vehicle control). OCR and ECAR were measured at 9-min intervals.
Seahorse data: to show a consistent baseline, OCR values (in pmol/min/mg protein) and ECAR values (in mpH/min/mg protein) for each value were divided, prior to statistical analysis, by the average of the four pre oligomycin treatment values (0, 8, 17, and 25 min) for the corresponding well and are shown as % pre oligomycin values. To account for repeated measures within wells over time, we utilized a repeated-measures-in-time design using ANOVA procedures in PROC MIXED (SAS). Fixed effects in the model were treatment (control, 5 μM XN, 5 μM DXN, and 5 μM TXN for the compound study), time (0, 8, 17, 25, 34, 43, 52, 60, 69, 78, 86, and 95 min), and their interaction. The random effect was the experiment (5 experiments for the compound study). To account for repeated measures within wells over time, a first order homogeneous variance-covariance matrix [AR(1)] was fitted for each well. Using the ESTIMATE statement, a priori contrasts were constructed by comparing the changes in compound treated cells from the last two time points prior to compound treatment (average 52 and 60 min) to the changes in control cells during the same time-period. This was carried out for each compound and dosage for 69, 78, 86, and 95 min separately and for all four time points combined. Results are shown in the text and the graphs as least squares means and their corresponding SEM (standard error of mean). […]

[4] = molecular target: T1, full-length purified human estrogen receptor ERβ (Homo sapiens, UniProt Q92731); assay: ERβ competitive radiometric binding assay; conditions: RBA = IC50[estradiol]/IC50[compound] × 100, estradiol = 100; 2 nM [3H]-estradiol tracer, 18–24 h at 0 °C
T1 construct: full-length purified human estrogen receptors ERα and ERβ
Procedure: . The receptors and ligands were incubated for 18–24 h at 0 °C and then the receptor–ligand complexes separated using hydroxyapatite (BioRad, Hercules, CA, USA). […]

T1 sequence (Q92731 whole entry): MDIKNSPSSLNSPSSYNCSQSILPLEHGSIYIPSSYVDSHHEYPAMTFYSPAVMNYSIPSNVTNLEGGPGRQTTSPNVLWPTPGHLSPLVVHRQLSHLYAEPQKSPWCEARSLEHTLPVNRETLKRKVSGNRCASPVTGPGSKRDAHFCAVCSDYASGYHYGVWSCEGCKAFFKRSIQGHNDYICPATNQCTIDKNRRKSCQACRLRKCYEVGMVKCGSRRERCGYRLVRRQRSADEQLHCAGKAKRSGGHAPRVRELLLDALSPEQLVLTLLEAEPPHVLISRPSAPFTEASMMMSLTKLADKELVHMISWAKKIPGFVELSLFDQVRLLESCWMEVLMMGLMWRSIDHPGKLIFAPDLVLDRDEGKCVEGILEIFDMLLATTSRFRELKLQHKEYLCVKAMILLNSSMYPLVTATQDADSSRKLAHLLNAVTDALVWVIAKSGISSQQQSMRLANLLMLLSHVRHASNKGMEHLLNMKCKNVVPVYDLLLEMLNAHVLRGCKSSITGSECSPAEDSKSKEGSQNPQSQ

Row | SMILES | Plasma ALT [1] [U/L] | Plasma AST [1] [U/L] | C2C12 cell viability (MTT) [2] | Increase of OCR in the presence of oligomycin (uncoupled respiration) [3] [%] | ECAR after addition of compound [3] | RBA ERβ (relative binding affinity) [4]
1 | COc1cc(O)c(CC=C(C)C)c(O)c1C(=O)CCc1ccc(O)cc1 [DXN, α,β-Dihydroxanthohumol] | 55.8 ± 6.1 | 105.6 ± 6.5 | did not significantly affect cell viability | 28.7 ± 6.9 | significant decrease | 0.009 ± 0.002
2 | COc1cc(O)c(CCC(C)C)c(O)c1C(=O)CCc1ccc(O)cc1 [TXN, tetrahydroxanthohumol] | 56.8 ± 10.5 | 110.5 ± 6.0 | did not significantly affect cell viability | 56.8 ± 6.9 | significant decrease | 0.009 ± 0.002
3 | COc1cc(O)c(CC=C(C)C)c(O)c1C(=O)/C=C/c1ccc(O)cc1 [XN, 3′-[3,3-dimethylallyl]-2′,4′,4-trihydroxy-6′-methoxychalcone] | 68.8 ± 6.8 | 112.3 ± 3.3 | did not significantly affect cell viability | – | significant decrease | 0.003 ± 0.001
